Assay results published in ChEMBL document CHEMBL5260828, “Amphiphilic glycoconjugates as potential anti-cancer chemotherapeutics” (Eur J Med Chem, 2018).
≈ marks a conversion by molar mass, not a printed value. Values belong to the compound of their own block, whether it stands above or below them.

What was measured:
K562 = experiment: Antiproliferative activity against human K562 cells assessed as reduction in cell viability incubated for 48 hrs by CCK-8 assay; format: functional, cell-based; conditions: K562, 48 h
[1] = Antimitotic activity against human U373 cells assessed as inhibition of cell proliferation by measuring inhibitory dose incubated for 48 hrs by [3H]-thymidine incorporation based liquid scintillation counting method; format: functional; conditions: U373 MG, read-out: ID50 (the source's name)
BT-474 = experiment: Cytotoxicity against human BT-474 cells assessed as reduction in cell viability incubated for 48 hrs by MTS assay; format: functional, cell-based; conditions: BT-474, time 48 hrs
MCF7 [2] = experiment: Antiproliferative activity against human MCF7 cells assessed as inhibition of cell growth incubated for 48 hrs; format: functional, cell-based; conditions: MCF7, 48 h, pooled result: one value given for 9 cell lines, strains, targets or settings
DU-145 = experiment: Cytotoxicity against human DU-145 cells assessed as reduction in cell viability incubated for 48 hrs by MTS assay; format: functional, cell-based; conditions: DU-145, time 48 hrs
JIMT-1 = experiment: Cytotoxicity against human JIMT-1 cells assessed as reduction in cell viability incubated for 48 hrs by MTS assay; format: functional, cell-based; conditions: JIMT-1, time 48 hrs
MIA PaCa-2 = experiment: Cytotoxicity against human MIA PaCa-2 cells assessed as reduction in cell viability incubated for 48 hrs by MTS assay; format: functional, cell-based; conditions: MIA PaCa-2, time 48 hrs
[3] = Antimitotic activity against rat Astrocytoma cell assessed as inhibition of cell proliferation by measuring inhibitory dose by [3H]-thymidine incorporation based […]; format: functional; conditions: read-out: ID50 (the source's name)
N2a = experiment: Antimitotic activity against mouse Neuro2a cells assessed as inhibition of cell proliferation by measuring inhibitory dose by [3H]-thymidine incorporation based […]; format: functional; conditions: read-out: ID50 (the source's name)
[4] = Antimitotic activity against rat Astrocyte cells assessed as inhibition of cell proliferation by measuring inhibitory dose by [3H]-thymidine incorporation based […]; format: functional; conditions: read-out: ID50 (the source's name)
[5] = Antimitotic activity against rat RN 22 cells assessed as inhibition of cell proliferation by measuring inhibitory dose by [3H]-thymidine incorporation based […]; format: functional; conditions: read-out: ID50 (the source's name)
MOLT-4 = experiment: Cytotoxicity against human MOLT-4 cells; format: functional, cell-based
MKN-45 = experiment: Cytotoxicity against human MKN-45 cells; format: functional, cell-based
T-24 [6] = experiment: Cytotoxicity against human T24 cells assessed as cell viability at 12.5 uM in presence of doxorubicin; format: functional; conditions: read-out: Activity
T-24 [7] = experiment: Cytotoxicity against human T24 cells assessed as cell viability; format: functional
[8] = Cytotoxicity against human HEK293F cells; format: toxicity, cell-based
[9] = Growth inhibition of mouse Lewis lung carcinoma cell line incubated for 72 hrs by sulforhodamine B staining assay; format: functional
L1210 = experiment: Growth inhibition of mouse L1210 cells incubated for 72 hrs by sulforhodamine B staining assay; format: functional
NCI/ADR-RES = experiment: Growth inhibition of human multi-drug resistant MCF7/Adr cells incubated for 72 hrs by sulforhodamine B staining assay; format: functional
MCF7 [10] = experiment: Growth inhibition of human MCF7 cells incubated for 72 hrs by sulforhodamine B staining assay; format: functional
HeLa S3 = experiment: Cytotoxicity against human HeLa S3 cells assessed as cell growth inhibition incubated for 48 hrs by MTT assay; format: functional, cell-based; conditions: HeLa S3, 48 h
[11] = Cytotoxicity against human JMSU-1 cells assessed as inhibition of cell growth incubated for 72 hrs by MTT assay; format: functional, cell-based; conditions: JMSU-1, 72 h
MCF7 [12] = experiment: Antiproliferative activity against human MCF7 cells assessed as cell growth inhibition by measuring minimum inhibitory concentration incubated for 48 hrs by MTT assay; format: functional
HL-60 = experiment: Cytotoxicity against human HL-60 cells assessed as inhibition of cell growth incubated for 72 hrs by MTT assay; format: functional, cell-based; conditions: HL-60, 72 h
BV-173 = experiment: Cytotoxicity against human BV-173 cells assessed as inhibition of cell growth incubated for 72 hrs by MTT assay; format: functional, cell-based; conditions: BV-173, 72 h
[13] = Cytotoxicity against human SKW-3 cells assessed as inhibition of cell growth incubated for 72 hrs by MTT assay; format: functional, cell-based; conditions: SKW3, 72 h
MDA-MB-231 [14] = experiment: Cytotoxicity against human MDA-MB-231 cells assessed as cell growth inhibition incubated for 48 hrs by crystal violet staining based spectrofluorimeter assay; format: functional; conditions: MDA-MB-231, 48 h
Ca-Ski = experiment: Cytotoxicity against human Ca-Ski cells assessed as inhibition of cell growth incubated for 24 hrs by MTT assay; format: functional, cell-based
MDA-MB-231 [15] = experiment: Inhibition of cell migration in human MDA-MB-231 cells incubated upto 48 hrs by inverted microscopic analysis; format: functional
HeLa = experiment: Cytotoxicity against human HeLa cells assessed as inhibition of cell growth incubated for 24 hrs by MTT assay; format: functional, cell-based
MDA-MB-231 [16] = experiment: Inhibition of cell growth in human MDA-MB-231 cells at 6 ug/ml incubated for 96 hrs; format: functional
MCF7 [17] = experiment: Inhibition of cell growth in human MCF7 cells at 6 ug/ml incubated for 96 hrs; format: functional
CCRF S-180 [18] = experiment: Antitumor activity against mouse CCRF S-180 cells implanted in Kunming mouse assessed as inhibition of tumor growth at 2 mg/kg,ip administered for 9 consecutive days; format: functional
CCRF S-180 [19] = experiment: Antitumor activity against mouse CCRF S-180 cells implanted in Kunming mouse assessed as inhibition of tumor growth at 4 mg/kg,ip administered for 9 consecutive days; format: functional
CCRF S-180 [20] = experiment: Antitumor activity against mouse CCRF S-180 cells implanted in Kunming mouse assessed as inhibition of tumor growth at 1 mg/kg,ip administered for 9 consecutive days; format: functional

- IC50 (K562): 17.7 µM
Structure (SMILES): CCCCCCCCCCN1C[C@@H](O)[C@@H](O)C1

Structure (SMILES): CCCCCCCCO[C@H]1O[C@H](COCC(CO)(CO)CO)[C@@H](O)[C@H](O)[C@H]1NC(C)=O
- IC50 [1]: 43 µM

- IC50 (MCF7 [2]): 4.1 µM
Structure (SMILES): CCCCCCCCCCCCCCCCOC[C@H](CO[C@@H]1O[C@H](CO)[C@@H](O)[C@H](O)[C@H]1N)OC
- CC50 (BT-474): 8 µM
- CC50 (DU-145): 10 µM
- CC50 (JIMT-1): 9 µM
- CC50 (MIA PaCa-2): 9 µM

Structure (SMILES): CO[C@@H]1O[C@H](CO)[C@@H](O[C@@H]2O[C@H](CO)[C@H](O)[C@H](O[C@H]3O[C@H](CO)[C@H](O)[C@H](O)[C@H]3NC(C)=O)[C@H]2O)[C@H](O[C@@H]2O[C@@H](C)[C@@H](O)[C@@H](O)[C@@H]2O)[C@H]1O
- IC50 [3]: 24 µM
- IC50 (N2a): 24 µM
- IC50 [4]: 24 µM
- IC50 [5]: 24 µM

Structure (SMILES): CCCCCCCC(=O)O[C@H]1[C@H](OC[C@H](O)[C@@H](O)[C@@H](O)[C@H](O)[C@H](O)CO)O[C@H](COC(=O)CCCCC)[C@@H](OC(=O)CCCCC)[C@@H]1OC(=O)CCCCC
- IC50 (MOLT-4): 8.1 µM
- IC50 (MKN-45): 16 µM
- viability at 12.5 µM (T-24 [6]): 36.9%
- Activity (T-24 [7]): 57.3%
- IC50 [8]: 21.8 µM

- GI50 (L1210): 7.09 µM
- GI50 (MCF7 [10]): 6.93 µM
Structure (SMILES): CCCCCCCCCCCCCCCCOC[C@H](CO[C@H]1C[C@@H](O)[C@H](O)[C@@H](CO)O1)OC
- GI50 [9]: 11.1 µM
- GI50 (NCI/ADR-RES): 12.8 µM

Structure (SMILES): C/C=C\C/C=C\C/C=C\C/C=C\C/C=C\CCCC(=O)OCC(CO[C@H]1O[C@H](CS(=O)(=O)O)[C@@H](O)[C@H](O)[C@H]1O)OC(=O)CCCCCCCCCCCCCCC (stereo not given in full)
- IC50 (HeLa S3): 80 µM

- MIC (MCF7 [12]): 6.25 µg/mL (≈ 10.6 µM)
Structure (SMILES): CCCCCCCCCC[C@@H](CC(=O)O)OC(=O)C[C@H](CCCCCCCCCC)O[C@@H]1O[C@@H](C)[C@H](O)[C@@H](O)[C@H]1O
- IC50 [11]: 60 µM
- IC50 (HL-60): 67 µM
- IC50 (BV-173): 50 µM
- IC50 [13]: 54 µM

Structure (SMILES): CC(=O)OC[C@H]1O[C@H]2O[C@@H](C)CCCCCC/C=C\CCCCCCCC(=O)O[C@@H]3[C@@H](O)[C@H](O[C@@H]2[C@@H](O)[C@@H]1O)O[C@H](COC(C)=O)[C@H]3O
- IC50 (MDA-MB-231 [14]): 21.7 µM
- IC50 (Ca-Ski): 25.3 µg/mL (≈ 36.8 µM)
- inhibition (INH) (MDA-MB-231 [15]): 41.5%
- IC50 (HeLa): 12.2 µg/mL (≈ 17.8 µM)

Structure (SMILES): CC/C=C\C/C=C\C/C=C\CCCCCCCC(=O)OC[C@@H](CO[C@@H]1O[C@H](CO)[C@H](O)[C@H](O)[C@H]1O)OC(=O)CCCCCCC/C=C\C/C=C\C/C=C\CC
- inhibition at 6 µg/mL (MDA-MB-231 [16]): 90%
- inhibition at 6 µg/mL (MCF7 [17]): 90%

Structure (SMILES): CCCCCCCCCCCCCO[C@@H]1O[C@H](CO[C@@H]2O[C@H](CO)[C@@H](O[C@@H]3O[C@H](CO[C@@H]4O[C@H](CO)[C@@H](O)[C@H](O)[C@H]4O)[C@@H](O)[C@H](O[C@@H]4O[C@H](CO)[C@@H](O)[C@H](O)[C@H]4O)[C@H]3O)[C@H](O)[C@H]2O)[C@@H](O)[C@H](O[C@@H]2O[C@H](CO)[C@@H](O[C@@H]3O[C@H](CO)[C@H](O)[C@H](O)[C@H]3O)[C@H](O)[C@H]2O)[C@H]1O
- inhibition in vivo at 2 mg/kg (CCRF S-180 [18]): 39.9%
- inhibition in vivo at 4 mg/kg (CCRF S-180 [19]): 37.9%
- inhibition in vivo at 1 mg/kg (CCRF S-180 [20]): 39.1%
